Measurements published in PMC5882628, “Development of a Cell-Based Assay to Assess Binding of the proNGF Prodomain to Sortilin” (Cellular and Molecular Neurobiology, 2017).
Blank lines part the entries; values can stand above or below the compound they belong to.

Key:
sortilin [1] = molecular target: T1, sortilin (Homo sapiens, UniProt Q99523); experiment: Cell-based assay of GSTpro (NGF prodomain) binding/uptake, wt sortilin-transfected HEK293 cells, sortilin/GST double stain, high content imaging, with detergent; settings: Fig. 6a; with detergent; sortilin-positive cells; preincubation 1 h, GSTpro 45 min
T1 construct: They were transfected with plasmids either encoding wild type sortilin, or sortilin with a mutation that renders it endocytosis deficient; expressed in transfected cells; host or cells: HEK 293 cells, transient transfection (lipofectamine)
T1 sequence (Q99523 78-831): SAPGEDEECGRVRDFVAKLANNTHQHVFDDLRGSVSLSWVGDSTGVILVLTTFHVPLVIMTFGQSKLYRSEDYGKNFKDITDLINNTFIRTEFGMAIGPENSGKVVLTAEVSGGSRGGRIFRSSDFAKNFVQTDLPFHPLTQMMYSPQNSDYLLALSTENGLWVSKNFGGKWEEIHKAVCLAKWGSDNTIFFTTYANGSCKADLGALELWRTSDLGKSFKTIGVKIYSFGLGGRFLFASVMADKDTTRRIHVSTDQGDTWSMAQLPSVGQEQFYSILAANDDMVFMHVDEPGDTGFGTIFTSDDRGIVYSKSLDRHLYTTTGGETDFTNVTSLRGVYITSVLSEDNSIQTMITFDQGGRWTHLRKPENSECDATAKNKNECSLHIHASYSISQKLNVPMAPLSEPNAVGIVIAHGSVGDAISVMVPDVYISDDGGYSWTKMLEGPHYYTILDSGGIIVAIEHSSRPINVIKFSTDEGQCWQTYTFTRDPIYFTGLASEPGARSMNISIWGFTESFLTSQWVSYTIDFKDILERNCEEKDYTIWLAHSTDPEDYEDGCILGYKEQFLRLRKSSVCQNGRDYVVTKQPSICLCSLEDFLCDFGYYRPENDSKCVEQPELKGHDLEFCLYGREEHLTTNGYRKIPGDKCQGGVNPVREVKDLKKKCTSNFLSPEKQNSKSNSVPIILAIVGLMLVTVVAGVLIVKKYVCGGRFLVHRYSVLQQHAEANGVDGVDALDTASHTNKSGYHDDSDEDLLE
Experimental: HEK 293 cells were grown in DMEM with 10% fetal bovine serum. They were transfected with plasmids either encoding wild type sortilin, or sortilin with a mutation that renders it endocytosis deficient, or an empty control vector according to manufacturer’s instructions using 20 µg lipofectamine (Thermo Fischer Scientific) with 8 µg DNA on […] per 6 cm, poly-lysine coated dish. The cells were initially plated into 24-well dishes after transfection. That intermediate step rendered more uniform cell numbers in the 96-well dishes that were used to run the actual assay. 24 h later, cells were split into black opaque-walled, clear-bottom 96 well dishes at 42000 cells in 80 µl medium/well. […] 1 h after that treatment, the medium was replaced with 80 µl medium containing the same antibody, compounds or peptides included in the preincubation medium, plus recombinant GSTpro or proNGF (either purified in-house from recombinant HEK cells or derived from an E.coli expression system at either 0 nM (negative control), or 50 nM, or, in a few instances at 5 or 10 nM. The respective concentrations are indicated in the figures 45 min after adding GSTpro or proNGF, cells were washed twice with prewarmed PBS and fixed in 4% PFA for 20 min at approximately 20 °C.
The fixed cells were washed with PBS for 15 min, followed by two 15 min washes with PBS with 0.1% Triton X-100. […] Wells to be evaluated for blocking of the sortilin-GSTpro interaction by antibodies were only stained with an antibody against the pro domain of proNGF in 10% FBS at a dilution of 1:1500 (Millipore (N-term) clone EPI318Y, Rabbit Monoclonal Antibody Catalog Number: #04-1142). […]
The following day, wells were washed 3 × 15 min with PBS/0.1% Triton X-100. […] Cellular fluorescence was quantified using an array scanner and the “Neuronal Profiler” Bioapplication (Thermo Fisher Scientific) as described below.
Sortilin-GSTpro interaction was also assessed using HEK cell derived cell lines stably expressing sortilin. […]
Images from 96 well dishes were automatically recorded with a Cellomics ArrayScan VTI HCS Reader (Thermo Scientific) using a 10× microscope objective and the build-in standard autofocus method. Fifteen 1024 × 1024 images in 4 channels (Channel 1 and 2: Filter XF5–Hoechst, to detect nuclei and all cells; Channel 3: XF53-Texas Red to detect, e.g., sortilin-positive cells; Channel 4: Filter XF93 – FITC, to detect cells positive, e.g., for the proNGF pro domain) were recorded per 96 well.
The images were analyzed with the Cellomics assay algorithm NeuronalProfiling.V3.5.

wt sortilin = experiment: Competition of proNGF against GSTpro binding to wt sortilin-transfected HEK cells (stained for GST); assay type: cell-based, human; settings: 5, 10, or 25 nM GSTpro concomitantly with 50 nM proNGF; Fig. 3v
Experimental: HEK 293 cells were grown in DMEM with 10% fetal bovine serum. They were transfected with plasmids either encoding wild type sortilin, or sortilin with a mutation that renders it endocytosis deficient, or an empty control vector according to manufacturer’s instructions using 20 µg lipofectamine (Thermo Fischer Scientific) with 8 µg DNA on […] per 6 cm, poly-lysine coated dish. The cells were initially plated into 24-well dishes after transfection. That intermediate step rendered more uniform cell numbers in the 96-well dishes that were used to run the actual assay. […]
A-T Immunohistochemistry on HEK 293 cells using Hoechst staining (nuclei); anti-sortilin staining; or staining directed against the pro domain of proNGF (proNGF/GSTpro); or composite image showing all staining concomitantly as indicated above the panels. a–d Cells transfected with an empty expression vector and treated with GSTpro. e–h Cells transfected with a sortilin expression construct, but not treated with GSTpro. i–l Cells transfected with sortilin and GSTpro treated. m–p, Cells transfected with sortilin and proNGF purified from recombinant E.coli. q–t Cells transfected with sortilin and proNGF purified from a eukaryotic expression system. […] Black columns: Total fluorescence intensity of “sortilin-negative” cells. Red columns: Total fluorescence intensity of sortilin positive cells. […]

proNGF (Homo sapiens) = proNGF (Homo sapiens) (UniProt P01138); settings: cited from earlier work
Chain of proNGF (Homo sapiens) (P01138 122-241): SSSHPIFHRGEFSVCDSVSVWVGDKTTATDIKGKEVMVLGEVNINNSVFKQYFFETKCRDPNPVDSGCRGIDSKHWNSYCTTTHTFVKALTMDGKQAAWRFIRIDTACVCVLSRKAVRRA

[2] = molecular target: internalization-mutant sortilin (human) (UniProt Q99523); experiment: immunostaining of cells or tissue; HEK293 cells transiently transfected with sortilin (or empty vector) in 96-well dishes, treated 45 min with 50 nM GSTpro or proNGF, washed, fixed, permeabilised (0.1% Triton X-100), stained for sortilin and for GST or the pro domain; automated array-scanner analysis of sortilin-positive and sortilin-negative cells
sortilin [3] = settings: scintillation proximity assay; ref Andersen et al. [2014]; cited from earlier work
From the text: The role of sortilin signaling in several pathologic processes makes it a target for drug development. […] In addition to this assay, other in vitro assays including the binding of ligands to membrane fractions derived from sortilin-expressing cells (Carvelli et al. [2017]), surface plasmon resonance, and l ...

reduction of GSTpro signal by neurotensin-derived and control peptides (in words) (sortilin [1]): to a lesser extent also reduced
Compound: PYIL [reference compound]

Compound: proNGF isolated from recombinant E. coli: Recombinant human proNGF expressed and purified from E.coli, purchased from Alamone labs
competition against GSTpro binding to sortilin (in words) (wt sortilin): compete against GSTpro binding to wt sortilin

Compound: sortilin (from UniProt Q99523)
Kd (proNGF (Homo sapiens)): 5 nM

Compound: euk. proNGF: proNGF isolated from a mammalian expression system
competition against GSTpro binding to sortilin (in words) (wt sortilin): compete against GSTpro binding to wt sortilin

GSTpro signal compared to wt sortilin transfected cells [2]: 60 % higher
Compound: GSTpro (GST C-terminally linked to the pro domain from NGF) (from UniProt P01138 19-121) (domain or fragment)

Compound: Cc1cc(=O)oc2c(CN[C@@H](CC(C)C)C(=O)O)c(O)ccc12 [AF40431]
blocking of sortilin-neurotensin interaction (in words) (sortilin [3]): blocked sortilin-neurotensin interaction
